Data as given in US6339081B1, “Composition and use” (priority 1996, dated 2002).

Legend:
Format in all cases: cell-based
[1] = test system: mixed bacterial culture; assay: Preservation of unpreserved latex, repeated challenge with mixed bacterial culture; parameters: key to Viable bacteria, Third inoculum (days) 5 / Viable bacteria, Third inoculum (days) 7 / Viable bacteria, First inoculum (days) 3 / Viable bacteria, First inoculum (days) 5 / Viable bacteria, First inoculum (days) 7 / Viable bacteria, Second inoculum (days) 3 / Viable bacteria, Second inoculum (days) 5 / Viable bacteria, Second inoculum (days) 7 / Viable bacteria, Third inoculum (days) 3: C is confluent growth over the surface; − is no visible colonies; + is few visible colonies; ++ is clusters of discreet colonies; details: latex
Method: Aliquots (25 parts) of unpreserved latex containing 50% by weight solids of a copolymer of 2-ethylhexylacrylate/acrylic acid at pH 8.5 were formulated with zinc acetate and the 2:1 zinc complex of 3-hydroxy4-methyl thiazol-2(3H)-thione in the amounts shown in Table 1 below. After formulation, each aliquot was stored at 20° C. for 1 week prior to inoculation with a mixed bacterial culture.
The bacterial culture was prepared by culturing the following seven bacteria in nutrient agar for 24 hours at 30° C.
Each of the individual bacterium was prepared at a concentration of 10^8 cells/ml in quarter strength Ringers solution by means of a Thoma counting chamber. The mixed inoculum was prepared by mixing equal volumes of the cultures containing the individual bacterium.
The latex aliquots were repeatedly inoculated at 0, 7 and 14 day intervals with 0.5 ml mixed inoculum (2×10^6 cells/ml) and incubated at 30° C. The number of viable bacteria was determined by streaking a small portion of each aliquot of latex onto nutrient agar after 3, 5 and 7 days followed by visible assessment after incubation for 2 days at 30° C.

[2] = test system: Pseudomonas aeruginosa NCIB 10421; assay: MIC and Fractional Inhibitory Concentration (FIC) in microtitre array; details: single component
Method: The gram negative bacterium, Pseudomonas aeruginosa NCIB 10421 was grown in nutrient broth to stationary phase during 18 hours and contained approximately 10^9 organisms/ml. A 0.1% (v/v) inoculum was used to seed fresh nutrient broth and 100 μl was then added to each well of a microtitre plate, except for the first well which contained 200 μl.
Solutions of zinc acetate (ZnAc) and the 2:1 zinc complex of 3-hydroxy-4-methylthiazol-2(3H)-thione (ZHMT), respectively, were prepared in nutrient broth at twice the final concentration to be used in the microtitre array. A microtitre array was prepared with concentration of zinc acetate and ZHMT from twice the MIC down to zero concentration in a 10×10 array. Since the array contains only 96 wells, the highest and lowest concentration of the zinc acetate and ZHMT were omitted. The dilution of the ZHMT was doubled across the ordinate axis of the array by transferring 100 μl aliquots so that the final volume in each well was 200 μl. The microtitre plate was then incubated for 16 to 24 hours at 37° C. and the presence of bacterial growth assessed visually.
The FIC is defined as the sum of the fractional inhibitory concentration of each component. The FIC of the individual component is the ratio of the concentration of the component in the binary mixture divided by its MIC.

[3] = test system: mixed inoculum; assay: Preservation of styrene-acrylic emulsion paint, challenge with mixed inoculum; parameters: key to Bacterial growth, First Inoculum Days 4 / Bacterial growth, First Inoculum Days 7 / Bacterial growth, Second Inoculum Days 4 / Bacterial growth, Second Inoculum Days 7 / Bacterial growth, Second Inoculum Days 14 / Bacterial growth, Third Inoculum Days 4 / Bacterial growth, Third Inoculum Days 7 / Bacterial growth, Third Inoculum Days 21: − = no growth (no visible colonies); + = light growth (a few visible colonies); ++ = moderate growth (discrete colonies visible, some coalescence); +++ = dense, confluent growth (coalescing colonies visible throughout streak); details: for Bacterial growth, First Inoculum Days 4 / Bacterial growth, First Inoculum Days 7 / Bacterial growth, Second Inoculum Days 4 / Bacterial growth, Second Inoculum Days 7 / Bacterial growth, Second Inoculum Days 14 / Bacterial growth, Third Inoculum Days 4 / Bacterial growth, Third Inoculum Days 7 / Bacterial growth, Third Inoculum Days 21: emulsion paint
Method: An inoculum was prepared containing the following micro-organisms:
Each of the individual bacterium was cultured in nutrient agar and incubated at 30° C. for 24 hours followed by suspension in quarter strength Ringers solution by means of a Thoma countering chamber to give 10^8 cells/ml. A mixed inoculum was prepared by combining equal volumes.
An aliquot of the starch containing the ZHMT, and optionally zinc acetate, was inoculated weekly with 0.5 ml of the mixed inoculum on three occasions to give 2×10^6 cells/ml. The aliquots were then incubated at 30° C. and examined for bacterial growth by streaking a small sample onto nutrient agar and incubating at 30° C. for 2 days prior to visual examination.
Aliquots of a styrene-acrylic emulsion paint were treated with the 2:1 zinc complex of 3-hydroxy-4-methylthiazol-2(3H)-thione (ZHMT) optionally containing zinc acetate (ZnAc) or zinc oxide (ZnO). These aliquots were challenged with the mixed inoculum described in Example 5 and examined for bacterial growth as described in this previous example.

[4] = test system: contaminated matt paint millbase; assay: Viable cells in contaminated matt paint millbase; parameters: key to Viable cells after (days) 5 / Viable cells after (days) 7 / Viable cells after (days) 14: C is confluent growth over the surface; − is no visible colonies; + is few visible colonies; ++ is clusters of discreet colonies
Method: 25 ml Aliquots of a contaminated matt paint millbase were formulated with the 2:1 zinc complex of 3-hydroxy-4-methylthiazol-2(3H)-thione and zinc acetate as shown in Table 2 below. The number of variable cells was determined by streaking a small portion of each aliquot of millbase onto nutrient agar after 5, 7 and 14 days. The number of cells was determined by visible assessment following incubation for 2 days at 30° C.

[5] = Amount 25 ppm of each component present
[6] = Amount 50 ppm of each component present
[7] = Amount 100 ppm of each component present
[8] = Amount 200 ppm of each component present

Cc1csc(=S)n1[O-].Cc1csc(=S)n1[O-].[Zn+2] [ZHMT, 2:1 zinc complex of 3-hydroxy-4-methylthiazol-2(3H)-thione]
32 ppm: Minimum Inhibitory Concentrations (MIC) ([2]; nutrient broth, 16 to 24 hours at 37° C.)
1: FIC ([2]; relative conc. 1)
++: Viable bacteria, First inoculum (days) 3 [1, 6] | Viable bacteria, Second inoculum (days) 3 [1, 6] | Viable bacteria, First inoculum (days) 3 [1, 7] | Viable bacteria, Second inoculum (days) 3 [1, 7] | Viable bacteria, Third inoculum (days) 3 [1, 7] | Viable bacteria, Third inoculum (days) 5 [1, 7] | Viable bacteria, Third inoculum (days) 7 [1, 7] | Viable bacteria, Second inoculum (days) 3 [1, 8] | Viable bacteria, Third inoculum (days) 3 [1, 8] | Viable bacteria, Third inoculum (days) 5 [1, 8] | Viable bacteria, Third inoculum (days) 7 [1, 8] | Bacterial growth, Second Inoculum Days 4 ([3]; Conc. 200 (ppm ZHMT)) | Bacterial growth, Second Inoculum Days 7 ([3]; Conc. 200 (ppm ZHMT)) | Bacterial growth, Second Inoculum Days 14 ([3]; Conc. 200 (ppm ZHMT))
significantly enhanced: activity in the presence of both zinc salts ([1]; especially after repeated challenge)
+: Viable bacteria, Second inoculum (days) 5 [1, 6] | Viable bacteria, Second inoculum (days) 7 [1, 6] | Viable bacteria, Second inoculum (days) 5 [1, 7] | Viable bacteria, First inoculum (days) 3 [1, 8] | Viable bacteria, Second inoculum (days) 5 [1, 8]
+++: Bacterial growth, Second Inoculum Days 4 ([3]; Conc. 10 (ppm ZHMT)) | Bacterial growth, Second Inoculum Days 7 ([3]; Conc. 10 (ppm ZHMT)) | Bacterial growth, Second Inoculum Days 14 ([3]; Conc. 10 (ppm ZHMT)) | Bacterial growth, Third Inoculum Days 4 ([3]; Conc. 10 (ppm ZHMT)) | Bacterial growth, Third Inoculum Days 7 ([3]; Conc. 10 (ppm ZHMT)) | Bacterial growth, Third Inoculum Days 21 ([3]; Conc. 10 (ppm ZHMT)) | Bacterial growth, Second Inoculum Days 4 ([3]; Conc. 25 (ppm ZHMT)) | Bacterial growth, Second Inoculum Days 7 ([3]; Conc. 25 (ppm ZHMT)) | Bacterial growth, Second Inoculum Days 14 ([3]; Conc. 25 (ppm ZHMT)) | Bacterial growth, Third Inoculum Days 4 ([3]; Conc. 25 (ppm ZHMT)) | Bacterial growth, Third Inoculum Days 7 ([3]; Conc. 25 (ppm ZHMT)) | Bacterial growth, Third Inoculum Days 21 ([3]; Conc. 25 (ppm ZHMT)) | Bacterial growth, Second Inoculum Days 4 ([3]; Conc. 50 (ppm ZHMT)) | Bacterial growth, Second Inoculum Days 7 ([3]; Conc. 50 (ppm ZHMT)) | Bacterial growth, Second Inoculum Days 14 ([3]; Conc. 50 (ppm ZHMT)) | Bacterial growth, Third Inoculum Days 4 ([3]; Conc. 50 (ppm ZHMT)) | Bacterial growth, Third Inoculum Days 7 ([3]; Conc. 50 (ppm ZHMT)) | Bacterial growth, Third Inoculum Days 21 ([3]; Conc. 50 (ppm ZHMT)) | Bacterial growth, Second Inoculum Days 4 ([3]; Conc. 100 (ppm ZHMT)) | Bacterial growth, Second Inoculum Days 7 ([3]; Conc. 100 (ppm ZHMT)) | Bacterial growth, Second Inoculum Days 14 ([3]; Conc. 100 (ppm ZHMT)) | Bacterial growth, Third Inoculum Days 4 ([3]; Conc. 100 (ppm ZHMT)) | Bacterial growth, Third Inoculum Days 7 ([3]; Conc. 100 (ppm ZHMT)) | Bacterial growth, Third Inoculum Days 21 ([3]; Conc. 100 (ppm ZHMT)) | Bacterial growth, Third Inoculum Days 4 ([3]; Conc. 200 (ppm ZHMT)) | Bacterial growth, Third Inoculum Days 7 ([3]; Conc. 200 (ppm ZHMT)) | Bacterial growth, Third Inoculum Days 21 ([3]; Conc. 200 (ppm ZHMT))
−: Viable bacteria, First inoculum (days) 3 [1, 5] | Viable bacteria, First inoculum (days) 5 [1, 5] | Viable bacteria, First inoculum (days) 7 [1, 5] | Viable bacteria, First inoculum (days) 5 [1, 6] | Viable bacteria, First inoculum (days) 7 [1, 6] | Viable bacteria, First inoculum (days) 5 [1, 7] | Viable bacteria, First inoculum (days) 7 [1, 7] | Viable bacteria, Second inoculum (days) 7 [1, 7] | Viable bacteria, First inoculum (days) 5 [1, 8] | Viable bacteria, First inoculum (days) 7 [1, 8] | Viable bacteria, Second inoculum (days) 7 [1, 8] | Bacterial growth, First Inoculum Days 4 ([3]; Conc. 10 (ppm ZHMT)) | Bacterial growth, First Inoculum Days 7 ([3]; Conc. 10 (ppm ZHMT)) | Bacterial growth, First Inoculum Days 4 ([3]; Conc. 25 (ppm ZHMT)) | Bacterial growth, First Inoculum Days 7 ([3]; Conc. 25 (ppm ZHMT)) | Bacterial growth, First Inoculum Days 4 ([3]; Conc. 50 (ppm ZHMT)) | Bacterial growth, First Inoculum Days 7 ([3]; Conc. 50 (ppm ZHMT)) | Bacterial growth, First Inoculum Days 4 ([3]; Conc. 100 (ppm ZHMT)) | Bacterial growth, First Inoculum Days 7 ([3]; Conc. 100 (ppm ZHMT)) | Bacterial growth, First Inoculum Days 4 ([3]; Conc. 200 (ppm ZHMT)) | Bacterial growth, First Inoculum Days 7 ([3]; Conc. 200 (ppm ZHMT))
C: Viable bacteria, Second inoculum (days) 3 [1, 5] | Viable bacteria, Second inoculum (days) 5 [1, 5] | Viable bacteria, Second inoculum (days) 7 [1, 5] | Viable bacteria, Third inoculum (days) 3 [1, 5] | Viable bacteria, Third inoculum (days) 5 [1, 5] | Viable bacteria, Third inoculum (days) 7 [1, 5] | Viable bacteria, Third inoculum (days) 3 [1, 6] | Viable bacteria, Third inoculum (days) 5 [1, 6] | Viable bacteria, Third inoculum (days) 7 [1, 6] | Viable cells after (days) 5 [4, 5] | Viable cells after (days) 7 [4, 5] | Viable cells after (days) 14 [4, 5] | Viable cells after (days) 5 [4, 6] | Viable cells after (days) 7 [4, 6]
> 200 ppm: ZHMT level at which the paint is preserved ([3]; styrene-acrylic emulsion paint)
